{
  "source": "patent US9587220B2",
  "about": "“Method for inducing cardiac differentiation of pluripotent stem cell” (Kyoto University, priority 2012, dated 2017)",
  "key": {"IMR90-1 hiPSCs": {"system": "IMR90-1 hiPSCs", "test": "Number of beating colonies and total number of cardiomyocytes per well (WNT inhibitor combinations)", "type": "cell-based, human", "settings": "total cell number x cTnT-positive ratio, FIG. 3e"}, "[1]": {"system": "hESC lines (KhES-1, KhES-3), monkey ESC line (CMK6.4), mouse ESC line (R1), hiPSC lines (IMR90-1, IMR90-4, 253G1, RCHIPC0003)", "test": "Beating cardiac colony ratio in a variety of PSC lines treated with KY02111 (serum-containing medium)", "type": "cell-based, human", "settings": "KY02111 treatment, FIG. 1e", "procedure": "All PSC lines were maintained on mitomycin C-treated mouse embryonic fibroblasts (MEF), in Primate ES Cell Culture Medium (ReproCELL Inc., Japan), with 5 ng ml^−1 bFGF for hPSCs, and without bFGF for monkey ESCs. Human ESC lines were KhES-1, KhES-3, H1, and H9 (Non-patent literatures 1, 41). Human iPSC lines were 253G1, IMR90-1, IMR90-4 (Non-patent literatures 42, 43), and RCHIPC0003. RCHIPC0003 was established from human fibroblasts by ReproCELL. The monkey ESC line was CMK6.4 (Non-patent literatures 1, 44, 45). The hESC line was used in conformity with the Guidelines for Derivation and Utilization of Human Embryonic Stem Cells of the Ministry of Education, Culture, Sports, Science, and Technology of Japan.\nConfluent hESCs and hiPSCs were gently detached with CTK solution and transferred into Petri dishes (BD Biosciences) with Primate ES Cell Culture Medium (ReproCELL, Japan). Cells were held in suspension culture for 8-24 h to form aggregates. The sizes of hPSC aggregates (0.3-1 mm in diameter) are important for efficient differentiation. […] Beating colonies were counted on Day 9."}},
  "note": "Values joined by “and” are separate entries in the source; they are usually repeats but may differ in a detail not shown here. Equal values may be shown once.",
  "data": [
    {"molecule": "COc1ccc(CCC(=O)Nc2nc3ccc(Cl)cc3s2)cc1OC", "note": "[KY02111, 2-(3-(3,4-dimethoxyphenyl)propanamide)-6-chlorobenzothiazole]", "values": [
      {"measurement": "number of cardiomyocytes produced relative to the control", "setting": "IMR90-1 hiPSCs", "result": 80, "unit": "fold"},
      {"measurement": "ratio of beating colonies per all of colonies on culture dish", "setting": "[1]", "result": "60-94% and 70-90%"}
    ]}
  ]
}
